Assay [1] concerns Mus musculus. Nature of the assay: Hypoglycemic activity in six hrs fasted C57BL6/J mouse assessed as reduction in blood glucose level at 30 nmol/kg, sc measured upto 120 mins post injection by glucometer analysis. It counts as functional, organism-based.
The subject of assay [2] is Mus musculus. Nature of the assay: Hypoglycemic activity in six hrs fasted C57BL6/J mouse assessed as improvement in glucose disposal at 30 nmol/kg, sc pre-administered with compound for 60 mins followed by glucose addition and measured upto 120 mins. Particulars: time <= 180.0 min. It counts as functional, organism-based.
Assay [3] concerns the target Glucagon-like peptide 1 receptor (Homo sapiens) (UniProt P43220). Nature of the assay: Agonist activity human GLP-1R stably expressed in HEK293-A cells assessed as […] in cAMP accumulation incubated for 30 mins by fluorescence resonance energy transfer analysis. It is filed as functional, cell-based. Particulars: filed as agonist.

Active and inactive are the calls of the source. The rule behind the calls is not given here.

Chain of Glucagon-like peptide 1 receptor (Homo sapiens) (P43220 whole entry): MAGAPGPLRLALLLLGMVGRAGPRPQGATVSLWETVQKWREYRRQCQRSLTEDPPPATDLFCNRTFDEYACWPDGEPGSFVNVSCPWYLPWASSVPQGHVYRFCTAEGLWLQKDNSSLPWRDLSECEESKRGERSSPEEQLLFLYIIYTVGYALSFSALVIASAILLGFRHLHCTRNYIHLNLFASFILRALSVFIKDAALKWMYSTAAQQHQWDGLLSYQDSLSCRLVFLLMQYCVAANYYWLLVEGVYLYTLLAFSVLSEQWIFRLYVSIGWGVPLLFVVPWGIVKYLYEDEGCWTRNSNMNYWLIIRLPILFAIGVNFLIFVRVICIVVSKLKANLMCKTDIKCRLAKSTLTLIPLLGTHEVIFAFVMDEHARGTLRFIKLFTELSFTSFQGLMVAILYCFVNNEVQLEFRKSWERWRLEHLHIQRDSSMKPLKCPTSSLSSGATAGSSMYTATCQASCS

SEMAGLUTIDE: the result in the assay on Mus musculus [1] was Active.
As for `CC[C@H](C)[C@H](NC(=O)[C@H](Cc1ccccc1)NC(=O)[C@H](CCC(=O)O)NC(=O)[C@H](CC(=O)N[C@@H]1O[C@H](CO)[C@@H](O[C@@H]2O[C@H](CO)[C@@H](O[C@@H]3O[C@H](CO[C@H]4O[C@H](CO)[C@@H](O)[C@H](O)[C@@H]4O[C@@H]4O[C@H](CO)[C@@H](O[C@@H]5O[C@H](CO[C@]6(C(=O)O)C[C@H](O)[C@@H](NC(C)=O)[C@H]([C@H](O)[C@H](O)CO)O6)[C@H](O)[C@H](O)[C@H]5O)[C@H](O)[C@H]4NC(C)=O)[C@@H](O)[C@H](O[C@@H]4O[C@H](CO)[C@H](O)[C@@H](O)[C@H]4O[C@@H]4O[C@H](CO)[C@@H](O[C@@H]5O[C@H](CO[C@]6(C(=O)O)C[C@H](O)[C@@H](NC(C)=O)[C@H]([C@H](O)[C@H](O)CO)O6)[C@H](O)[C@H](O)[C@H]5O)[C@H](O)[C@H]4NC(C)=O)[C@@H]3O)[C@H](O)[C@H]2NC(C)=O)[C@H](O)[C@H]1NC(C)=O)NC(=O)[C@H](C)NC(=O)[C@H](C)NC(=O)[C@H](CCC(N)=O)NC(=O)CNC(=O)[C@H](CCC(=O)O)NC(=O)[C@H](CC(C)C)NC(=O)[C@H](Cc1ccc(O)cc1)NC(=O)[C@H](CO)NC(=O)[C@H](CO)NC(=O)[C@@H](NC(=O)[C@H](CC(=O)O)NC(=O)[C@H](CO)NC(=O)[C@@H](NC(=O)[C@H](Cc1ccccc1)NC(=O)[C@@H](NC(=O)CNC(=O)[C@H](CCC(=O)O)NC(=O)C(C)(C)NC(=O)[C@@H](N)Cc1c[nH]cn1)[C@@H](C)O)[C@@H](C)O)C(C)C)C(=O)N[C@@H](C)C(=O)N[C@@H](Cc1c[nH]c2ccccc12)C(=O)N[C@@H](CC(C)C)C(=O)N[C@H](C(=O)N[C@@H](CCCNC(=N)N)C(=O)NCC(=O)N[C@@H](CCCNC(=N)N)C(=O)NCC(=O)O)C(C)C`, the result (in the assay with Mus musculus [2]; in assay [3]; with Mus musculus [1]) was Active.

Source of the values: ChEMBL document CHEMBL5543110, “Engineering of a Biologically Active Glycosylated Glucagon-Like Peptide-1 Analogue” (J Med Chem, 2024).
